Key:
c-Abl kinase = target: T1, c-Abl kinase (Homo sapiens, UniProt P00519); experiment: c-Abl protein-tyrosine kinase filter binding assay; assay type: biochemical
T1 construct: The His-tagged kinase domain of c-Abl is cloned and expressed in the baculovirus/Sf9 system; His; made in house; host or cells: Sf9 insect cells (baculovirus)
T1 sequence (P00519 242-493 limits assumed): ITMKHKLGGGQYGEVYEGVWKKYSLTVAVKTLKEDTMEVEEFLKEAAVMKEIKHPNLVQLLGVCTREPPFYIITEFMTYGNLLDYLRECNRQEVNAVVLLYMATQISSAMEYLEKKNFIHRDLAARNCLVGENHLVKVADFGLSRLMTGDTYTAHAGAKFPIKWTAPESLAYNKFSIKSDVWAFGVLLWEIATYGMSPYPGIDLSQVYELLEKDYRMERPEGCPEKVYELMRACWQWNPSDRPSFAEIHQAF
Experimental: The His-tagged kinase domain of c-Abl is cloned and expressed in the baculovirus/Sf9 system as described by Bhat et al. in J. Biol. Chem. 1997; 272:16170-16175. A protein of 37 kD (c-Abl kinase) is purified by a two-step procedure over a Cobalt metal chelate column followed by an anion exchange column with a yield of 1-2 mg/L of Sf9 cells (Bhat et al., reference cited). The purity of the c-Abl kinase is >90% as judged by SDS-PAGE after Coomassie blue stai-ning. The assay contains (total volume of 30 μL): c-Abl kinase (50 ng), 20 mM Tris.HCl, pH 7.5, 10 mM MgCl2, 10 μM Na3VO4, 1 mM DTT and 0.06 μCi/assay [γ33 P]-ATP (5 μM ATP) using 30 μg/mL poly-Ala, Glu, Lys, Tyr-6:2:5:1 (Poly-AEKY, Sigma P1152) in the presence of 1% DMSO. Reactions are terminated by adding 10 μL of 250 mM EDTA and 30 μL of the reaction mixture is transferred onto Immobilon-PVDF membrane (Millipore, Bedford, Mass., USA) previously soaked for 5 min with methanol, rinsed with water, then soaked for 5 min with 0.5% H3PO4 and mounted on vacuum manifold with disconnected vacuum source. After spotting all samples, vacuum is connected and each well rinsed with 200 μL 0.5% H3PO4. […] Membranes are counted after drying at ambient temperature, mounting in Packard TopCount 96-well frame, and addition of 10 μL/well of Microscint™ (Packard).

human EphB4 receptor = target: T2, human EphB4 receptor (Homo sapiens, UniProt P54760); experiment: EphB4 kinase assay on recombinant Ephrin B4 receptor domains (33P filter assay); assay type: biochemical
T2 construct: made in house; host or cells: Sf9 or Sf21 insect cells (baculovirus)
T2 sequence (P54760 566-987): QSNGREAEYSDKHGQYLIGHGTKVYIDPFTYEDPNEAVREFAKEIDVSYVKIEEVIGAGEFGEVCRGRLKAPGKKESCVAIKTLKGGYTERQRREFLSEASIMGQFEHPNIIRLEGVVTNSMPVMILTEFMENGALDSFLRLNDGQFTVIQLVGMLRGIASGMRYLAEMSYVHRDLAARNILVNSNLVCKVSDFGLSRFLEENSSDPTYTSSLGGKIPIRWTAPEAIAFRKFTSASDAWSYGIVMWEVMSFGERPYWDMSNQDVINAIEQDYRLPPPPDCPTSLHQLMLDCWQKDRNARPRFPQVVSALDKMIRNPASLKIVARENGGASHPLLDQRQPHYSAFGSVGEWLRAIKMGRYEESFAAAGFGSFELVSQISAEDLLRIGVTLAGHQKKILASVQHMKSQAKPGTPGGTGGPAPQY
Source text: Recombinant baculovirus are generated that express the amino acid region 566-987 of the human EphB4 receptor (SwissProt Database, Accession No. P54760). GST sequence is cloned into pFastBac1® vector (Invitrogen Life Technologies, Basel, Switzerland) and PCR amplified. cDNAs encoding EphB4-receptor domains, respectively are cloned in frame 3′prime to the GST sequence into this modified FastBac1 vector to generate pBac-to-Bac™ donor vectors. Single colonies arising from the transformation are inoculated to give overnight cultures for small scale plasmid preparation. […] By automated sequencing the inserts and approximately 50 bp of the flanking vector sequences are confirmed on both strands.
Production of viruses: Viruses for each of the kinases are made according to the protocol supplied by GIBCO if not stated otherwise. In brief, transfer vectors containing the kinase domains are transfected into the DH10Bac cell line (GIBCO) and plated on selective agar plates. […]
Purification of GST-tagged kinases: The centrifuged cell lysate is loaded onto a 2 mL glutathione-sepharose column (Pharmacia) and washed three times with 10 mL of 25 mM Tris-HCl, pH 7.5, 2 mM EDTA, 1 mM DTT, 200 mM NaCl. […] Membranes are counted after drying at ambient temperature, mounting in Packard TopCount96-well frame, and addition of 10 μL/well of Microscint™ (Packard). […]

human EphB4 = target: T3, human EphB4 (Homo sapiens, UniProt P54760); experiment: EphB4 receptor autophosphorylation sandwich ELISA in transfected A375 human melanoma cells; assay type: cell-based; settings: EphB4 receptor auto-phosphorylation in vitro on cells
T3 construct: expressed in transfected cells; host or cells: A375 human melanoma cells (ATCC CRL-1619)
T3 sequence (P54760 16-987): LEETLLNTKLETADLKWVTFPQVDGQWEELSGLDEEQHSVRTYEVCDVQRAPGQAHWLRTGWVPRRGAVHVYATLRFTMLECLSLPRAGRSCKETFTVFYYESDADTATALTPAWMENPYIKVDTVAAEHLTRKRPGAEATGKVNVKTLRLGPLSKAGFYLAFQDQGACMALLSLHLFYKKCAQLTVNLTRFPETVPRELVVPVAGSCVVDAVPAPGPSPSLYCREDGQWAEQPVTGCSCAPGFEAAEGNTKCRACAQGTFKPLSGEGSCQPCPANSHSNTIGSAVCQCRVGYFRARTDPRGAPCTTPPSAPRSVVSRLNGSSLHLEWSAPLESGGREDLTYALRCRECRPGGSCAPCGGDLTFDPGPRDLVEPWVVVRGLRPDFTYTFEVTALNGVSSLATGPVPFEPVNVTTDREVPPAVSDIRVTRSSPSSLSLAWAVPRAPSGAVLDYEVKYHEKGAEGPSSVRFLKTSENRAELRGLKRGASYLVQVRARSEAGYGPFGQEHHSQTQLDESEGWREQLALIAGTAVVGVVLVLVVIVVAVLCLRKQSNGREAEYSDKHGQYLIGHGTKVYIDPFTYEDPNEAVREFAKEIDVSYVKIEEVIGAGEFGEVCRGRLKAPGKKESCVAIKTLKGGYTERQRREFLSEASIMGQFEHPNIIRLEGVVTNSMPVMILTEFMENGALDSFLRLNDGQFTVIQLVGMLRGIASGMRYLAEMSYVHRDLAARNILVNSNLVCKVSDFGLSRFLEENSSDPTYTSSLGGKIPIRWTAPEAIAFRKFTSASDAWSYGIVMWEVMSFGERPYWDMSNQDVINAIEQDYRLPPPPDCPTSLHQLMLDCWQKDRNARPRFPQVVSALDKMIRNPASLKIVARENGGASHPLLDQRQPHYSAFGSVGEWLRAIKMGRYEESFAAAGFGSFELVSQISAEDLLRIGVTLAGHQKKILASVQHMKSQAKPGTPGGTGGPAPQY
Experimental: Alternatively, EphB4 receptor autophosphorylation can be measured as follows: The inhibition of EphB4 receptor autophosphorylation can be confirmed with an in vitro experiment in cells such as transfected A375 human melanoma cells (ATCC Number: CRL-1619), which permanently express human EphB4 (SwissProt AccNo P54760), are seeded in complete culture medium (with 10% fetal calf serum ═FCS) in 6-well cell-culture plates and incubated at 37° C. under 5% CO2 until they show about 90% confluency. The compounds to be tested are then diluted in culture medium (without FCS, with 0.1% bovine serum albumin) and added to the cells. (Controls comprise medium without test compounds). Ligand induced autophosphorylation is induced by the addition of 1 microg/ml soluble ephrinB2-Fc (s-ephrinB2-Fc: R&D Biosystems, CatNr 496-EB) and 0.1 microM ortho-vanadate. After a further 20 minutes incubation at 37° C., the cells are washed twice with ice-cold PBS (phosphate-buffered saline) and immediately lysed in 200 μl lysis buffer per well. The lysates are then centrifuged to remove the cell nuclei, and the protein concentrations of the supernatants are determined using a commercial protein assay (PIERCE). The lysates can then either be immediately used or, if necessary, stored at −20° C. […]

| c-Abl IC50 (c-Abl kinase) [nM] | EphB4 IC50 (human EphB4 receptor) [nM] | EphB4 ELISA - IC50 (human EphB4) [nM] | SMILES |
| --- | --- | --- | --- |
| 1 to 1000 | 1 to 1000 | 1 to 1000 | COc1ccc(-c2cnn3c(N)c(-c4cccc(Cl)c4)c(CN4CCNCC4)nc23)cc1OC [Example 1, 6-(3-Chloro-phenyl)-3-(3,4-dimethoxy-phenyl)-5-piperazin-1-ylmethyl-pyrazolo[1,5-a]pyrimidin-7-ylamine] |
| 1 to 1000 | 1 to 1000 | 1 to 1000 | COc1ccc(-c2cnn3c(N)c(-c4ccc(F)cc4)c(CN4CCNCC4)nc23)cc1OC [Example 2, 3-(3,4-Dimethoxy-phenyl)-6-(4-fluoro-phenyl)-5-piperazin-1-ylmethyl-pyrazolo[1,5-a]pyrimidin-7-ylamine] |

Source: patent US20080234284A1, “Pyrazolo[1,5-a]Pyrimidin-7-Yl Amine Derivatives as Protein Kinase Inhibitors” (priority 2005, published 2008)
